{"source": "patent US20130030025A1", "about": "“USE OF POTASSIUM CHANNEL BLOCKERS TO TREAT CEREBRAL PALSY” (priority 2011, published 2013)", "assay": "Body weight of animals after MCAO", "type": "in vivo, Sprague Dawley rats", "method": "Animals: 45 male Sprague Dawley Rats, 300-400 g (obtained from Charles River Laboratories, which arrived 7-10 days before surgery at 250-275 g) were used.\nTreatment groups: Dosing was started 4 weeks after pMCAO surgery. During these 4 weeks, weekly behavioral assessments, as defined below, were performed. Two dose levels of 4-AP plus vehicle control were assessed, with treatment starting at 4 weeks after ischemic event. All dosing was via gastric gavage, volume not to exceed 2 mL/kg. Animals were given the first dose and behavioral assessments were performed starting 60 minutes after dosing. Animals then received the second dose that day at the appropriate time and b.i.d (preferably every 12 hours) thereafter for 2 more days (3 total days of dosing, 5 total doses). One hour after the 5th dose, animals were subjected to behavioral assessments as defined below. Following the final behavioral assessment, drug was withdrawn for 10 or 11 days, behavior was re-assessed, and then animals were re-challenged with a cross-over treatment (Phase II of Table 1B) as described in Tables 1A, 1B, followed by the same behavioral testing and dosing regimen. This cross-over was repeated one more time as well (Phase III of Table 1B) (see FIG. 2)."}
{"compound": "Nc1ccncc1", "note": "[4-AP, 4-aminopyridine]", "values": [{"measurement": "Weight (g), Mean", "setting": "Group I, D30, first dosing phase (high dose, inferred)", "result": 453.1, "unit": "g"}, {"measurement": "Weight (g), Mean", "setting": "Group I, D32, first dosing phase (high dose, inferred)", "result": 436.3, "unit": "g"}, {"measurement": "Weight (g), Mean", "setting": "Group I, D44, second dosing phase (low dose, inferred)", "result": 476.2, "unit": "g"}, {"measurement": "Weight (g), Mean", "setting": "Group I, D46, second dosing phase (low dose, inferred)", "result": 471.1, "unit": "g"}, {"measurement": "Weight (g), Mean", "setting": "Group II, D30, first dosing phase (low dose, inferred)", "result": 446.0, "unit": "g"}, {"measurement": "Weight (g), Mean", "setting": "Group II, D32, first dosing phase (low dose, inferred)", "result": 438.1, "unit": "g"}, {"measurement": "Weight (g), Mean", "setting": "Group II, D58, third dosing phase (high dose, inferred)", "result": 500.9, "unit": "g"}, {"measurement": "Weight (g), Mean", "setting": "Group II, D60, third dosing phase (high dose, inferred)", "result": 483.0, "unit": "g"}, {"measurement": "Weight (g), Mean", "setting": "Group III, D44, second dosing phase (high dose, inferred)", "result": 471.9, "unit": "g"}, {"measurement": "Weight (g), Mean", "setting": "Group III, D46, second dosing phase (high dose, inferred)", "result": 451.0, "unit": "g"}, {"measurement": "Weight (g), Mean", "setting": "Group III, D58, third dosing phase (low dose, inferred)", "result": 494.9, "unit": "g"}, {"measurement": "Weight (g), Mean", "setting": "Group III, D60, third dosing phase (low dose, inferred)", "result": 485.1, "unit": "g"}]}
